In patent US10294234B2, “HIV inhibitor compounds” (priority 2017, dated 2019):
Like-named read-outs stand apart in the source and are kept apart here.

Legend:
[1] = system: HIV-1 (IIIB) in MT-4 cells; test: MT-4 HIV assay; type: cell-based; details: Human immunodeficiency virus 1, MT4, 120 h
Summary of the method: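 MT-4 cells infected with HIV-1 IIIB (1:250 stock dilution) were incubated with 1:3 serially diluted compounds in RPMI with 10% FBS for 5 days at 37 °C. Cell Titer Glo luminescence was the readout. Plates included mock-infected wells, no-drug wells and 5 uM AZT controls.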

[2] = Summary of the method: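 Test compounds at 1 uM incubated in duplicate with dog, rat and human liver microsomes (0.5 mg/mL protein) plus NADPH-regenerating system; sampled at 2, 12, 25, 45 and 65 minutes. Parent remaining monitored by LC/MS/MS; Clint calculated from in vitro t1/2.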
[3] = HIV-1 (IIIB), MT-4 cells, 5 days, Cell Titer Glo, read-out: EC50
[4] = human liver microsomes 0.5 mg/mL, 1 uM compound, NADPH
[5] = rat liver microsomes 0.5 mg/mL, 1 uM compound, NADPH

Row | SMILES | EC50 [1, 3] | Human Pred Cl. ([2]; human, microsomes) | Rat. Pred. Cl. ([2]; rat, microsomes) | EC50 [1] | Human Pred Cl. [2, 4] | Rat. Pred. Cl. [2, 5]
1 | COC(=O)N[C@H](C(=O)NN(Cc1c(F)cc(-c2ccn(C(F)F)n2)cc1F)C[C@H](O)[C@H](Cc1ccc(C#Cc2ccc(N3CC4CCC(C3)N4S(C)(=O)=O)nc2)cc1)NC(=O)[C@@H](NC(=O)OC)C(C)(C)C(F)(F)F)C(C)(C)C [Example 72, Methyl ((5S,8S,9S,14S)-11-(4-(1-(difluoromethyl)-1H-pyrazol-3-yl)-2,6-difluorobenzyl)-9-hydroxy-15,15-dimethyl-8-(4-((6-(8-(methylsulfonyl)-3,8-diazabicyclo[3.2.1]octan-3-yl)pyridin-3-yl)ethynyl)benzyl)-3,6,13-trioxo-5-(1,1,1-trifluoro-2-methylpropan-2-yl)-2-oxa-4,7,11,12-tetraazahexadecan-14-yl)carbamate] | 5.19 nM | 0.14 L/H/kg | <0.18 L/H/kg | – | – | –
2 | COC(=O)N[C@H](C(=O)NN(Cc1c(F)cc(-c2cn(C(F)F)cn2)cc1F)C[C@H](O)[C@H](Cc1ccc(C#Cc2ccc(N3CC4CCC(C3)N4C3COC3)nc2)cc1)NC(=O)[C@@H](NC(=O)OC)C(C)(C)C(F)(F)F)C(C)(C)C [Example 77, Methyl ((5S,8S,9S,14S)-11-(4-(1-(difluoromethyl)-1H-imidazol-4-yl)-2,6-difluorobenzyl)-9-hydroxy-15,15-dimethyl-8-(4-((6-(8-(oxetan-3-yl)-3,8-diazabicyclo [3.2.1]octan-3-yl)pyridin-3-yl)ethynyl)benzyl)-3,6,13-trioxo-5-(1,1,1-trifluoro-2-methylpropan-2-yl)-2-oxa-4,7,11,12-tetraazahexadecan-14-yl)carbamate] | 2.49 nM | <0.11 L/H/kg | 0.25 L/H/kg | – | – | –
3 | COC(=O)N[C@H](C(=O)N[C@@H](Cc1ccc(C#Cc2ccc(N3CC4CCC(C3)N4C3COC3)nc2C)cc1)[C@@H](O)CN(Cc1c(F)cc(-c2ccccn2)cc1F)NC(=O)[C@@H](NC(=O)OC)C(C)(C)C(F)(F)F)C(C)(C)C(F)(F)F [Example 78, Methyl ((5S,8S,9S,14S)-11-(2,6-difluoro-4-(pyridin-2-yl)benzyl)-16,16,16-trifluoro-9-hydroxy-15,15-dimethyl-8-(4-((2-methyl-6-(8-(oxetan-3-yl)-3,8-diazabicyclo[3.2.1]octan-3-yl)pyridin-3-yl)ethynyl)benzyl)-3,6,13-trioxo-5-(1,1,1-trifluoro-2-methylpropan-2-yl)-2-oxa-4,7,11,12-tetraazahexadecan-14-yl)carbamate] | 6.27 nM | <0.11 L/H/kg | <0.18 L/H/kg | – | – | –
4 | COC(=O)N[C@H](C(=O)N[C@@H](Cc1ccc(C#Cc2ccc(N3CCN(C)C(=O)C3)nc2)cc1)[C@@H](O)CN(Cc1c(F)cc(-c2ccn(C(F)F)n2)cc1F)NC(=O)[C@@H](NC(=O)OC)C(C)(C)C(F)(F)F)C(C)(C)C(F)(F)F [Example 81, Methyl ((5S,8S,9S,14S)-11-(4-(1-(difluoromethyl)-1H-pyrazol-3-yl)-2,6-difluorobenzyl)-16,16,16-trifluoro-9-hydroxy-15,15-dimethyl-8-(4-((6-(4-methyl-3-oxopiperazin-1-yl)pyridin-3-yl)ethynyl)benzyl)-3,6,13-trioxo-5-(1,1,1-trifluoro-2-methylpropan-2-yl)-2-oxa-4,7,11,12-tetraazahexadecan-14-yl)carbamate] | – | – | – | 4.39 nM | <0.11 L/H/kg | 0.39 L/H/kg
5 | COC(=O)N[C@H](C(=O)N[C@@H](Cc1ccc(C#Cc2ccc(N3CC4CCC(C3)N4C3COC3)nc2)cc1)[C@@H](O)CN(Cc1c(F)cc(C2CCOCC2)cc1F)NC(=O)[C@@H](NC(=O)OC)C(C)(C)C(F)(F)F)C(C)(C)C(F)(F)F [Example 82, Methyl ((5S,8S,9S,14S)-11-(2,6-difluoro-4-(tetrahydro-2H-pyran-4-yl)benzyl)-16,16,16-trifluoro-9-hydroxy-15,15-dimethyl-8-(4-((6-(8-(oxetan-3-yl)-3,8-diazabicyclo[3.2.1]octan-3-yl)pyridin-3-yl)ethynyl)benzyl)-3,6,13-trioxo-5-(1,1,1-trifluoro-2-methylpropan-2-yl)-2-oxa-4,7,11,12-tetraazahexadecan-14-yl)carbamate] | 4.4 nM | 0.82 L/H/kg | 0.44 L/H/kg | – | – | –
6 | COC(=O)N[C@H](C(=O)NN(Cc1ccc(-c2ccn(C(F)F)n2)cc1)C[C@H](O)[C@H](Cc1ccc(C#Cc2ccc(N3CC4CCC(C3)N4C3COC3)nc2)cc1)NC(=O)[C@@H](NC(=O)OC)C(C)(C)C(F)(F)F)C(C)(C)C [Example 85, Methyl ((5S,8S,9S,14S)-11-(4-(1-(difluoromethyl)-1H-pyrazol-3-yl)benzyl)-9-hydroxy-15,15-dimethyl-8-(4-((6-(8-(oxetan-3-yl)-3,8-diazabicyclo[3.2.1]octan-3-yl)pyridin-3-yl)ethynyl)benzyl)-3,6,13-trioxo-5-(1,1,1-trifluoro-2-methylpropan-2-yl)-2-oxa-4,7,11,12-tetraazahexadecan-14-yl)carbamate] | 3.78 nM | 0.13 L/H/kg | 0.19 L/H/kg | – | – | –
7 | COC(=O)N[C@H](C(=O)NN(Cc1c(F)cc(-c2cnn(C(F)F)c2)cc1F)C[C@H](O)[C@H](Cc1ccc(C#Cc2ccc(N3CC4CCC(C3)N4C3COC3)nc2)cc1)NC(=O)[C@@H](NC(=O)OC)C(C)(C)C(F)(F)F)C(C)(C)C [Example 86, Methyl ((5S,8S,9S,14S)-11-(4-(1-(difluoromethyl)-1H-pyrazol-4-yl)-2,6-difluorobenzyl)-9-hydroxy-15,15-dimethyl-8-(4-((6-(8-(oxetan-3-yl)-3,8-diazabicyclo[3.2.1]octan-3-yl)pyridin-3-yl)ethynyl)benzyl)-3,6,13-trioxo-5-(1,1,1-trifluoro-2-methylpropan-2-yl)-2-oxa-4,7,11,12-tetraazahexadecan-14-yl)carbamate] | 2.61 nM | <0.11 L/H/kg | <0.18 L/H/kg | – | – | –
8 | COC(=O)N[C@H](C(=O)N[C@@H](Cc1ccc(C#Cc2cnc(N3CCN(C4COC4)CC3)nc2)cc1)[C@@H](O)CN(Cc1c(F)cc(-c2ccn(C(F)F)n2)cc1F)NC(=O)[C@@H](NC(=O)OC)C(C)(C)C(F)(F)F)C(C)(C)C(F)(F)F [Example 87, methyl ((5S,8S,9S,14S)-11-(4-(1-(difluoromethyl)-1H-pyrazol-3-yl)-2,6-difluorobenzyl)-16,16,16-trifluoro-9-hydroxy-15,15-dimethyl-8-(4-((2-(4-(oxetan-3-yl)piperazin-1-yl)pyrimidin-5-yl)ethynyl)benzyl)-3,6,13-trioxo-5-(1,1,1-trifluoro-2-methylpropan-2-yl)-2-oxa-4,7,11,12-tetraazahexadecan-14-yl)carbamate] | – | – | – | 4.26 nM | 0.13 L/H/kg | 0.23 L/H/kg
9 | COC(=O)N[C@H](C(=O)NN(Cc1c(F)cc(-c2ccn(C3CC3)n2)cc1F)C[C@H](O)[C@H](Cc1ccc(C#Cc2ccc(N3C[C@H]4C[C@@H]3CN4C3COC3)nc2)cc1)NC(=O)[C@@H](NC(=O)OC)C(C)(C)C(F)(F)F)C(C)(C)C [Example 90, Methyl ((5S,8S,9S,14S)-11-(4-(1-cyclopropyl-1H-pyrazol-3-yl)-2,6-difluorobenzyl)-9-hydroxy-15,15-dimethyl-8-(4-((6-((1R,4R)-5-(oxetan-3-yl)-2,5-diazabicyclo[2.2.1]heptan-2-yl)pyridin-3-yl)ethynyl)benzyl)-3,6,13-trioxo-5-(1,1,1-trifluoro-2-methylpropan-2-yl)-2-oxa-4,7,11,12-tetraazahexadecan-14-yl)carbamate] | – | – | – | 3.45 nM | 0.14 L/H/kg | 0.67 L/H/kg
10 | COC(=O)N[C@H](C(=O)N[C@@H](Cc1ccc(C#Cc2ccc(N3C[C@H]4C[C@@H]3CN4C3COC3)nc2)cc1)[C@@H](O)CN(Cc1c(F)cc(-c2ncccn2)cc1F)NC(=O)[C@@H](NC(=O)OC)C(C)(C)C(F)(F)F)C(C)(C)C(F)(F)F [Example 93, Methyl ((5S,8S,9S,14S)-11-(2,6-difluoro-4-(pyrimidin-2-yl)benzyl)-16,16,16-trifluoro-9-hydroxy-15,15-dimethyl-8-(4-((6-((1R,4R)-5-(oxetan-3-yl)-2,5-diazabicyclo[2.2.1]heptan-2-yl)pyridin-3-yl)ethynyl)benzyl)-3,6,13-trioxo-5-(1,1,1-trifluoro-2-methylpropan-2-yl)-2-oxa-4,7,11,12-tetraazahexadecan-14-yl)carbamate] | 2.49 nM | – | – | – | 0.19 L/H/kg | 1.13 L/H/kg
11 | COC(=O)N[C@H](C(=O)NN(Cc1c(F)cc(-c2ncccn2)cc1F)C[C@H](O)[C@H](Cc1ccc(C#Cc2ccc(N3C[C@H]4C[C@@H]3CN4C3COC3)nc2)cc1)NC(=O)[C@@H](NC(=O)OC)C(C)(C)C(F)(F)F)C(C)(C)C [Example 95] | – | – | – | 2.44 nM | 0.38 L/H/kg | 1.39 L/H/kg
